Measurements taken from the supplement of paper PMC10307832.

Key:
Test in all cases: relative viability (nuclei count vs DMSO), 5 days (fraction); higher = more cells survive
Bexarotene + Luminespib = compound: C=C(c1ccc(C(=O)O)cc1)c1cc2c(cc1C)C(C)(C)CCC2(C)C [Bexarotene] + CCNC(=O)c1noc(-c2cc(C(C)C)c(O)cc2O)c1-c1ccc(CN2CCOCC2)cc1 [Luminespib] (partner 0.01 µM)
Outline: (§1)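 Lung cancer cell lines were pin-tool dosed in 1536-well plates on the day after seeding, with either a lone drug or a fixed anchor-drug dose plus five library-drug doses (not always all listed) in √10 steps. Nuclei were counted on 4× images after 5 days. Relative viability is the ratio of treated-well to vehicle-well nuclei counts, with each value a median of duplicate plates.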

Bexarotene + OSI-027 = compound: C=C(c1ccc(C(=O)O)cc1)c1cc2c(cc1C)C(C)(C)CCC2(C)C [Bexarotene] + COc1cccc2cc(-c3nc([C@H]4CC[C@H](C(=O)O)CC4)n4ncnc(N)c34)[nH]c12 [OSI-027] (partner 0.5 µM)
Outline: as §1

Bexarotene + Lapatinib = compound: C=C(c1ccc(C(=O)O)cc1)c1cc2c(cc1C)C(C)(C)CCC2(C)C [Bexarotene] + CS(=O)(=O)CCNCc1ccc(-c2ccc3ncnc(Nc4ccc(OCc5cccc(F)c5)c(Cl)c4)c3c2)o1 [Lapatinib] (partner 2 µM)
Outline: as §1

Bexarotene + Linsitinib = compound: C=C(c1ccc(C(=O)O)cc1)c1cc2c(cc1C)C(C)(C)CCC2(C)C [Bexarotene] + C[C@]1(O)C[C@@H](c2nc(-c3ccc4ccc(-c5ccccc5)nc4c3)c3c(N)nccn32)C1 [Linsitinib] (partner 1 µM)
Outline: as §1

Cell Line	relative viability (Bexarotene + Luminespib; first compound 0.08 µM)	relative viability (Bexarotene + Luminespib; first compound 0.253 µM)	relative viability (Bexarotene + Luminespib; first compound 0.8 µM)	relative viability (Bexarotene + Luminespib; first compound 2.53 µM)	relative viability (Bexarotene + Luminespib; first compound 8 µM)	relative viability (Bexarotene + OSI-027; first compound 0.08 µM)	relative viability (Bexarotene + OSI-027; first compound 0.253 µM)	relative viability (Bexarotene + OSI-027; first compound 0.8 µM)	relative viability (Bexarotene + OSI-027; first compound 2.53 µM)	relative viability (Bexarotene + OSI-027; first compound 8 µM)	relative viability (Bexarotene + Lapatinib; first compound 0.08 µM)	relative viability (Bexarotene + Lapatinib; first compound 0.253 µM)	relative viability (Bexarotene + Lapatinib; first compound 0.8 µM)	relative viability (Bexarotene + Lapatinib; first compound 2.53 µM)	relative viability (Bexarotene + Lapatinib; first compound 8 µM)	relative viability (Bexarotene + Linsitinib; first compound 0.08 µM)	relative viability (Bexarotene + Linsitinib; first compound 0.253 µM)	relative viability (Bexarotene + Linsitinib; first compound 0.8 µM)	relative viability (Bexarotene + Linsitinib; first compound 2.53 µM)	relative viability (Bexarotene + Linsitinib; first compound 8 µM)
H3255	0.869	0.935	1.01	0.785	0.954	0.714	0.538	0.598	0.585	0.6	0.257	0.256	0.228	0.245	0.219	0.964	0.995	0.985	0.991	0.934
EPLC-272H	0.304	0.332	0.252	0.303	0.258	0.292	0.277	0.26	0.283	0.272	0.982	0.825	0.898	0.746	0.865	1.31	1.07	0.846	1.25	1.25
PC-3 [JPC-3]	0.645	0.618	0.635	0.775	0.616	0.816	0.798	0.604	0.733	0.676	0.519	0.48	0.427	0.466	0.446	0.98	1.03	0.829	0.882	0.827
NCI-H1793	0.2	0.152	0.164	0.15	0.335	0.339	0.319	0.313	0.203	0.311	0.647	0.68	0.647	0.568	0.519	1.08	0.959	1.03	0.914	0.897
EKVX	0.918	0.837	0.922	0.787	0.851	0.706	0.661	0.698	0.63	0.648	0.202	0.186	0.227	0.204	0.19	0.971	1.04	0.922	0.996	0.937
ChaGo-K-1	0.54	0.604	0.6	0.686	0.693	0.651	0.676	0.715	0.545	0.611										
NCI-H23	0.229	0.201	0.238	0.234	0.204	0.607	0.597	0.6	0.55	0.461	1.13	1.11	1.2	1.06	1.12	0.737	0.673	0.533	0.638	0.654
EMC-BAC-2	1.28	1.23	1.23	1.12	1.11	0.416	0.42	0.385	0.367	0.419	0.923	0.884	0.812	0.841	0.887	0.873	0.813	0.75	0.804	0.811
LOU-NH91	0.364	0.318	0.346	0.287	0.268	0.709	0.718	0.606	0.599	0.643	0.736	0.755	0.691	0.695	0.722	0.912	0.901	0.806	0.79	0.823
LU99A	0.268	0.251	0.238	0.291	0.244	0.325	0.361	0.286	0.316	0.315	1.12	0.917	0.929	0.99	1.03	0.616	0.504	0.477	0.518	0.653
NCI-H1395	0.806	0.631	0.687	0.663	0.749	0.672	0.653	0.616	0.624	0.633	1.05	0.935	0.926	0.902	0.997	1.15	1.08	1.23	1.07	1.11
NCI-H460	0.0252	0.0297	0.0376	0.0318	0.0222	0.844	0.727	0.704	0.701	0.618	1.01	1.03	0.948	0.981	0.731	0.94	0.865	0.757	0.66	0.744
201T	1	1.04	1.01	0.985	0.881	0.852	0.445	0.757	0.639	0.474	1.01	0.945	1.03	1.02	0.997	0.952	1.02	0.874	0.951	0.843
NCI-H1944	1.45	0.977	0.959	1.11	0.875	0.616	0.495	0.48	0.476	0.451	1.17	0.934	0.961	0.929	0.768	1.5	1.36	1.4	1.41	1.19
NCI-H2405	0.775	0.663	0.539	0.703	0.625	0.675	0.674	0.512	0.708	0.65	1.16	1.07	0.824	1.08	1.24	1.1	0.946	0.695	0.973	0.912
NCI-H1703											1.14	1.11	0.802	0.834	0.762	0.846	1.02	1.02	0.619	0.629
NCI-H1755	0.391	0.504	0.679	0.52	0.438	0.777	0.741	0.675	0.637	0.611	1.07	1.29	1.1	0.994	1.02	1.05	1.1	1.08	0.992	1.02
